Test results: ChEMBL document CHEMBL4665663, “Anti-atherosclerosis effect of HS donors based on nicotinic acid and chlorfibrate structures” (Bioorg Med Chem, 2019)
Active and inactive are the calls of the source. No cut-off for these calls is given here.

Key:
HUVEC [1] = assay: Cytoprotective activity against ox-LDL induced cell damage in human HUVEC cells assessed as increase in cell viability at 50 uM preincubated for 10 mins followed by ox-LDL stimulation measured after 24 hrs by MTT assay; type: functional, cell-based
HUVEC [2] = assay: Cytotoxicity against human HUVEC cells assessed as reduction in cell viability at 10 to 100 uM by MTT assay; type: cell-based; conditions: dose 10-100 µM
RAW264.7 [3] = assay: (§1) Anti-atherosclerotic activity in mouse RAW264.7 cells assessed as decrease in ox-LDL induced intracellular lipid accumulation by measuring reduction in free cholesterol level at 50 uM preincubated for 10 mins followed by ox-LDL stimulation and measured after 24 hrs by colorimetric method relative to control; type: functional; conditions: RAW264.7, 10 min
[4] = Prodrug release in phosphate buffer containing L-cysteine assessed as H2S release by measuring H2S releasing half-life at 60 uM by methylene blue method; type: ADME
H9c2 = assay: Cytotoxicity against rat H9c2 cells assessed as reduction in cell viability after 48 hrs by MTT assay; type: cell-based; conditions: H9c2, 48 h
HUVEC [5] = assay: Cytotoxicity against human HUVEC cells assessed as reduction in cell viability after 48 hrs by MTT assay; type: cell-based
RAW264.7 [6] = assay: Cytotoxicity against mouse RAW264.7 cells assessed as reduction in cell viability after 48 hrs by MTT assay; type: cell-based; conditions: RAW264.7, 48 h
WI-38 = assay: Cytotoxicity against human WI38 cells assessed as reduction in cell viability after 48 hrs by MTT assay; type: cell-based; conditions: WI-38, 48 h
HUVEC [7] = assay: Cytoprotective activity against ox-LDL induced cell damage in human HUVEC cells assessed as cell viability at 100 uM preincubated for 10 mins followed by ox-LDL stimulation measured after 24 hrs by MTT assay (reference value: 73.1%); type: functional; conditions: read-out: Activity
HUVEC [8] = assay: Anti-atherosclerotic activity against ox-LDL induced cell damage in human HUVEC cells assessed as reduction in nuclear pyknosis and apoptotic bodies formation preincubated for 10 mins followed by ox-LDL stimulation and measured after 24 hrs by Hoechst 33342 staining based fluorescence microscopy; type: functional
HUVEC [9] = assay: Anti-atherosclerotic activity against ox-LDL induced cell damage in human HUVEC cells assessed as reduction in late apoptotic and death cells preincubated for 10 mins followed by ox-LDL stimulation and measured after 24 hrs by PI staining based fluorescence microscopic analysis; type: functional
HUVEC [10] = assay: Anti-atherosclerotic activity against ox-LDL induced cell damage in human HUVEC cells assessed as reduction in early apoptotic cells by measuring increase in mitochondrial membrane potential preincubated for 10 mins followed by ox-LDL stimulation and measured after 24 hrs by JC-1 staining based fluorescence microscopic analysis; type: functional
RAW264.7 [11] = assay: Antioxidant activity in mouse RAW264.7 cells assessed as reduction in ox-LDL-induced oxidative stress by measuring increase in SOD level at 50 uM preincubated for 10 mins followed by ox-LDL stimulation and measured after 24 hrs relative to control; type: functional; parameters: scale not given: the % may be the effect or the level left
HUVEC [12] = assay: Anti-atherosclerotic activity against ox-LDL induced apoptosis in human HUVEC cells assessed as reduction in Bax expression at 10 to 50 uM preincubated for 10 mins followed by ox-LDL stimulation and measured after 24 hrs by ELISA; type: functional, cell-based; conditions: dose microM 10-50, time 10.0 min
HUVEC [13] = assay: Anti-atherosclerotic activity against ox-LDL induced apoptosis in human HUVEC cells assessed as reduction in caspase-3 expression at 10 to 50 uM preincubated for 10 mins followed by ox-LDL stimulation and measured after 24 hrs by ELISA; type: functional, cell-based; conditions: dose microM 10-50, time 10.0 min
HUVEC [14] = assay: Anti-atherosclerotic activity against ox-LDL induced apoptosis in human HUVEC cells assessed as increase in bcl-2 expression at 50 uM preincubated for 10 mins followed by ox-LDL stimulation and measured after 24 hrs by ELISA; type: functional
RAW264.7 [15] = assay: Inhibition of macrophage foam cell formation in mouse RAW264.7 cells assessed as reduction in ox-LDL induced red lipid droplets formation preincubated for 10 mins followed by ox-LDL stimulation and measured after 24 hrs by oil red O staining based inverted microscopy analysis; type: functional; conditions: dose microM 10-50, time 10.0 min
RAW264.7 [16] = assay: Inhibition of macrophage foam cell formation in mouse RAW264.7 cells assessed as reduction in ox-LDL induced red lipid droplets formation at 50 uM preincubated for 10 mins followed by ox-LDL stimulation and measured after 24 hrs by oil red O staining based inverted microscopy analysis; type: functional
RAW264.7 [17] = assay: as §1, with “total” for “free”; type: functional; conditions: RAW264.7, 10 min
RAW264.7 [18] = assay: Anti-atherosclerotic activity in mouse RAW264.7 cells assessed as decrease in ox-LDL induced intracellular lipid accumulation by measuring reduction in CE/TC ratio at 50 uM preincubated for 10 mins followed by ox-LDL stimulation and measured after 24 hrs by colorimetric method relative to control; type: functional; conditions: RAW264.7, 10 min
RAW264.7 [19] = assay: Antioxidant activity in mouse RAW264.7 cells assessed as reduction in ox-LDL induced ROS accumulation at 10 to 50 uM preincubated for 10 mins followed by ox-LDL stimulation and measured after 24 hrs by DCFH-DA staining based fluorescence microscopic analysis; type: functional, cell-based; conditions: dose microM 10-50, time 10.0 min
RAW264.7 [20] = assay: Antioxidant activity in mouse RAW264.7 cells assessed as reduction in ox-LDL induced oxidative stress by measuring decrease in MDA level at 50 uM preincubated for 10 mins followed by ox-LDL stimulation and measured after 24 hrs relative to control; type: functional; conditions: RAW264.7, 10 min
RAW264.7 [21] = assay: Anti-inflammatory activity in mouse RAW264.7 cells assessed as decrease in ox-LDL induced inflammatory reaction by measuring decrease in TNF-alpha production preincubated for 10 mins followed by ox-LDL stimulation and measured after 24 hrs; type: functional, cell-based; conditions: dose microM 10-50, time 10.0 min
RAW264.7 [22] = assay: Anti-inflammatory activity in mouse RAW264.7 cells assessed as decrease in ox-LDL induced inflammatory reaction by measuring increase in IL-10 production preincubated for 10 mins followed by ox-LDL stimulation and measured after 24 hrs; type: functional, cell-based; conditions: dose microM 10-50, time 10.0 min
RAW264.7 [23] = assay: Anti-atherosclerotic activity in mouse RAW264.7 cells assessed as decrease in ox-LDL induced PI3K protein expression at 10 to 50 uM preincubated for 10 mins followed by ox-LDL stimulation and measured after 24 hrs by Western blot analysis; type: functional, cell-based; conditions: dose microM 10-50, time 10.0 min
RAW264.7 [24] = assay: Anti-atherosclerotic activity in mouse RAW264.7 cells assessed as decrease in ox-LDL induced AKT protein expression at 10 to 50 uM preincubated for 10 mins followed by ox-LDL stimulation and measured after 24 hrs by Western blot analysis; type: functional, cell-based; conditions: dose microM 10-50, time 10.0 min
RAW264.7 [25] = assay: Anti-atherosclerotic activity in mouse RAW264.7 cells assessed as decrease in ox-LDL induced NFkappaB protein expression at 10 to 50 uM preincubated for 10 mins followed by ox-LDL stimulation and measured after 24 hrs by Western blot analysis; type: functional, cell-based; conditions: dose microM 10-50, time 10.0 min

Question: What does the source list for `CC(C)(Oc1ccc(Cl)cc1)C(=O)OCCCOC(=O)CCCCC1CCSS1` (configuration not stated)?
Answer: Activity (HUVEC [1]): Active; Activity (HUVEC [2]): Non-Toxic; inhibition at 50 µM (RAW264.7 [3]): 25.4%; t1/2 [4]: 21.3 min; IC50 (H9c2): > 800 µM; IC50 (HUVEC [5]): > 800 µM; IC50 (RAW264.7 [6]): > 800 µM; IC50 (WI-38): > 800 µM; viability at 100 µM (HUVEC [7]): 89.2%; Activity (HUVEC [8]): Active; Activity (HUVEC [9]): Active; Activity (HUVEC [10]): Active; Activity (RAW264.7 [11]): 45.4%; Activity (HUVEC [12]): Active; Activity (HUVEC [13]): Active; Activity (HUVEC [14]): 31.9%; inhibition (RAW264.7 [15]): Dose-dependent effect; inhibition (RAW264.7 [16]): Active; inhibition at 50 µM (RAW264.7 [17]): 52.4%; inhibition at 50 µM (RAW264.7 [18]): 30.9%; Activity (RAW264.7 [19]): Active; inhibition at 50 µM (RAW264.7 [20]): 41%; Activity (RAW264.7 [21]): Dose-dependent effect; Activity (RAW264.7 [22]): Dose-dependent effect; Activity (RAW264.7 [23]): Active; Activity (RAW264.7 [24]): Active; Activity (RAW264.7 [25]): Active
